# From patent US8008298B2, “Pyrrolopyrazine kinase inhibitors” (Roche Palo Alto, priority 2008, dated 2011)
row,melting point [°C],SMILES
1,205 to 206,"CC(C)(C)C(=O)c1c[nH]c2ncc(-c3cccc(NCCS(C)(=O)=O)c3)nc12 [Example I-407, 1-{2-[3-(2-Methanesulfonyl-ethylamino)-phenyl]-5H-pyrrolo[2,3-b]pyrazin-7-yl}-2,2-dimethyl-propan-1-one]"
2,216 to 222,"CC(C)(C)C(=O)c1c[nH]c2ncc(-c3cccc(N4CCNCC4)c3)nc12 [Example I-46, 2,2-Dimethyl-1-[2-(3-piperazin-1-yl-phenyl)-5H-pyrrolo[2,3-b]pyrazin-7-yl]-propan-1-one]"
3,192 to 193,"CC1(C(=O)c2c[nH]c3ncc(-c4cccc(N5CCCC5)c4)nc23)CCCCCC1 [Example 160, (1-Methyl-cycloheptyl)-[2-(3-pyrrolidin-1-yl-phenyl)-5H-pyrrolo[2,3-b]pyrazin-7-yl]-methanone]"
4,196 to 198,"COC1CN(c2cccc(-c3cnc4[nH]cc(C(=O)C(C)(C)C)c4n3)c2)C1 [Example 111, 1-{2-[3-(3-Methoxy-azetidin-1-yl)-phenyl]-5H-pyrrolo[2,3-b]pyrazin-7-yl}-2,2-dimethyl-propan-1-one]"
5,244 to 246,"COc1cc(-c2cnc3[nH]cc(C(=O)C4(C)CCCC4)c3n2)cc(OC)c1OC [Example 147, (1-Methyl-cyclopentyl)-[2-(3,4,5-trimethoxy-phenyl)-5H-pyrrolo[2,3-b]pyrazin-7-yl]-methanone]"
6,> 300,"Cc1nnc(-c2ccc(-c3cnc4[nH]cc(C(=O)C(C)(C)C)c4n3)cc2)o1 [Example I-357, 2,2-Dimethyl-1-{2-[4-(5-methyl-[1,3,4]oxadiazol-2-yl)-phenyl]-5H-pyrrolo[2,3-b]pyrazin-7-yl}-propan-1-one]"
7,198.2 to 201,"CCOC(C)(OCC)C(=O)c1c[nH]c2ncc(-c3cc(OC)c(OC)c(OC)c3)nc12 [Example 72, 2,2-Diethoxy-1-[2-(3,4,5-trimethoxy-phenyl)-5H-pyrrolo[2,3-b]pyrazin-7-yl]-propan-1-one]"
8,80 to 83,"CC1(C(=O)c2c[nH]c3ncc(-c4cccc(CCCO)c4)nc23)CCCCC1 [Example 156, {2-[3-(3-Hydroxy-propyl)-phenyl]-5H-pyrrolo[2,3-b]pyrazin-7-yl}-(1-methyl-cyclohexyl)-methanone]"
9,212 to 214,"COc1cc(-c2cnc3[nH]cc(C(=O)C4(C)CCCCC4)c3n2)cc(N2CCSCC2)c1 [Example I-155, [2-(3-Methoxy-5-thiomorpholin-4-yl-phenyl)-5H-pyrrolo[2,3-b]pyrazin-7-yl]-(1-methyl-cyclohexyl)-methanone]"
10,228 to 230,"CC(C)(C)C(=O)c1c[nH]c2ncc(-c3cccc(NC4=NCCN4)c3)nc12 [Example 236, 1-{2-[3-(4,5-Dihydro-1H-imidazol-2-ylamino)-phenyl]-5H-pyrrolo[2,3-b]pyrazin-7-yl}-2,2-dimethyl-propan-1-one]"
11,143 to 144,"COCc1cccc(-c2cnc3[nH]cc(C(=O)C(C)(C)C)c3n2)c1 [Example I-130, 1-[2-(3-Methoxymethyl-phenyl)-5H-pyrrolo[2,3-b]pyrazin-7-yl]-2,2-dimethyl-propan-1-one]"
12,214 to 216,"CC1(C(=O)c2c[nH]c3ncc(-c4cccc(N5CCN(C(=O)CC#N)CC5)c4)nc23)CCCCC1 [Example 178, 3-(4-{3-[7-(1-Methyl-cyclohexanecarbonyl)-5H-pyrrolo[2,3-b]pyrazin-2-yl]-phenyl}-piperazin-1-yl)-3-oxo-propionitrile]"
13,239 to 241,"CC(C)(C)C(=O)c1c[nH]c2ncc(-c3cccc(N)c3)nc12 [Example 226, 1-[2-(3-Amino-phenyl)-5H-pyrrolo[2,3-b]pyrazin-7-yl]-2,2-dimethyl-propan-1-one]"
14,240 to 242,"CC(C)(C)C(=O)c1c[nH]c2ncc(-c3cccc(N4CCN(C(=O)CC#N)CC4)c3)nc12 [Example 90, 3-(4-{3-[7-(2,2-Dimethyl-propionyl)-5H-pyrrolo[2,3-b]pyrazin-2-yl]-phenyl}-piperazin-1-yl)-3-oxo-propionitrile]"
